Laboratory results reported in BindingDB's records for PubMed 32707525 (n/a, 2020).
Square brackets hold non-standard residues; d marks the D form. Peptide text beside a SMILES is read from it. Mpa = O=C(O)CCS

The compounds below were run against CDK9/cyclin T1 (Homo sapiens, UniProt O60563+P50750) (assay: Inhibition of CDK9/cyclin T1 (unknown origin) assessed as inhibition constant).
Sequence of CDK9/cyclin T1 (O60563 whole entry, looked up): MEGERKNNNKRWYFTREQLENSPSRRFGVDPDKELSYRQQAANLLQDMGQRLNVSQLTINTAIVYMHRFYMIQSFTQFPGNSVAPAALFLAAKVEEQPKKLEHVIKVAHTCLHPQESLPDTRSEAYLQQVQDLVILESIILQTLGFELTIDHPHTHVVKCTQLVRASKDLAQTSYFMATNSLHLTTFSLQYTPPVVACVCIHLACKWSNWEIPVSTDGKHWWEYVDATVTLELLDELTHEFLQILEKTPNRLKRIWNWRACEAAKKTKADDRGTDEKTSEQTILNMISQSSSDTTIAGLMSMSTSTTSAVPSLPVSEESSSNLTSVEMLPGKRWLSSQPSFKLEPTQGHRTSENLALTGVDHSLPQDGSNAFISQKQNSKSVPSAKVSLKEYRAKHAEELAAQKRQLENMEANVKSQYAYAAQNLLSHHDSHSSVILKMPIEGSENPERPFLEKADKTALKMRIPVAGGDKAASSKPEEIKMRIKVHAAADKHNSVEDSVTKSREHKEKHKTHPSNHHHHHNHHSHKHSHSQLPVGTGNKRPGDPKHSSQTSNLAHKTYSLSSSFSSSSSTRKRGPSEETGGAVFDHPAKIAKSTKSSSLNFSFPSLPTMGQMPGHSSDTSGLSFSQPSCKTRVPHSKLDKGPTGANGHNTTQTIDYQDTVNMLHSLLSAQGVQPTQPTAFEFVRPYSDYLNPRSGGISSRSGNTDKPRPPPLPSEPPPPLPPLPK
Sequence of CDK9/cyclin T1 (P50750 whole entry, looked up): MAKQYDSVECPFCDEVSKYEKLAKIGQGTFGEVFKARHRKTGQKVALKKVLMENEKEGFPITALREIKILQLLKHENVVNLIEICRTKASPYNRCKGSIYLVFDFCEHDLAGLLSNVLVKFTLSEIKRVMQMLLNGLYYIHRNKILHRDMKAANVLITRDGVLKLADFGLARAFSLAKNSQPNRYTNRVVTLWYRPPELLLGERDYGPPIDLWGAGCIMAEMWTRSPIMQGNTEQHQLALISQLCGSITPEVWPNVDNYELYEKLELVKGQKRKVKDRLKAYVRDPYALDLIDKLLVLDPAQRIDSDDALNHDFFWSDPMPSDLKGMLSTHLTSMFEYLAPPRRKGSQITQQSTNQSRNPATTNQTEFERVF

For CC(C)C[C@H](NC(=O)[C@@H](NC(=O)c1cccc(OCc2ccccc2)c1)C(C)C)C(=O)N[C@@H](CO)C(=O)O, which Ki is on record?
Its Ki is 3.3 nM.

How did the Ki turn out when CC(C)C[C@H](NC(=O)[C@@H](NC(=O)c1ccc(OCc2ccccc2)cc1)C(C)C)C(=O)N[C@@H](CO)C(=O)O was run?
Its Ki is 3.3 nM.

Which Ki does the source give for CC(C)C[C@H](NC(=O)[C@@H](NC(=O)CCS)C(C)C)C(=O)N[C@@H](CO)C(=O)O ([Mpa]VLS-OH) here?
The Ki was 3.3 nM.

The compounds below were run against CDK2/Cyclin A2 (Homo sapiens, UniProt P20248+P24941) (assay: Inhibition of CDK2/cyclin A2 (unknown origin) using histone as substrate in presence of ATP by luminescent ADP detection assay).

How did the IC50 turn out when CC(C)[C@H](NC(=O)[C@H](Cc1ccccc1)NC(=O)[C@@H](Cc1ccc(O)cc1)NC(=O)CC12CC3CC(CC(C3)C1)C2)C(=O)N[C@@H](CC(N)=O)C(=O)N[C@@H](CCCN=C(N)N)C(=O)N1CCC[C@@H]1C(=O)N[C@@H](CCCN=C(N)N)C(=O)N[C@@H](CCCN=C(N)N)C(N)=O was run?
Its IC50 is under 20 nM.

How did the IC50 turn out when CCOc1ccc(C[C@@H](NC(=O)CC23CC4CC(CC(C4)C2)C3)C(=O)N[C@@H](Cc2ccccc2)C(=O)N[C@H](C(=O)N[C@@H](CC(N)=O)C(=O)N[C@@H](CCCCN)C(=O)N2CCC[C@@H]2C(=O)N[C@@H](CCCN=C(N)N)C(=O)N[C@@H](CCCN=C(N)N)C(N)=O)C(C)C)cc1 was run?
The IC50 was under 20 nM.

For CCCCC/N=C(/N)N/N=C/c1c[nH]c2ccc(OC(C)C)cc12, which IC50 is on record?
Its IC50 is under 20 nM.

Which IC50 does the source give for CCCCCNC(=N)N/N=C/c1c[nH]c2ccc(O)cc12 here?
The IC50 was under 20 nM.

With CCCCC/N=C(/N)N/N=C/c1c[nH]c2ccc(OCC=C(C)C)cc12 as the compound, how does the IC50 read?
Its IC50 is under 20 nM.

These compounds were tested against Cyclin-dependent kinase 2/cyclin E1 (Homo sapiens, UniProt P24864+P24941) (assay: Inhibition of CDK2/cyclin E1 (unknown origin) incubated for 60 mins in presence of ATP by ADP-Glo luminescent Kinase Assay).

With CC(C)C[C@H](NC(=O)[C@@H](NC(=O)c1ccccc1OCc1ccccc1)C(C)C)C(=O)N[C@@H](CO)C(=O)O as the compound, how does the IC50 read?
Its IC50 is 0.216 nM.

CC(C)C[C@H](NC(=O)[C@@H](NC(=O)c1ccccc1O)C(C)C)C(=O)N[C@@H](CO)C(=O)O was tested. Which IC50 did it give?
Its IC50 is 0.216 nM.
